In patent publication US10815222B2, “Compounds for use in the treatment of kinetoplastid infection” (C.N.C.C.S. S.c.a.r.l. COLLEZIONE NAZIONALE DEI COMPOSTI …, priority 2016, dated 2020):

Each molecule was assayed on Bloodstream form of Trypanosoma brucei, strain Lister 427 (assay: Trypanosoma brucei growth inhibition assay (CellTiter-Glo, 24 h)). Conditions: Trypanosoma brucei; T. Brucei Growth Inibition Assay, class symbols; read-out: T. Brucei GI EC50.
Format: cell-based
Method in brief: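 Bloodstream-form T. brucei Lister 427, 1500 parasites per well in supplemented IMDM with 10% FBS, were exposed to compound (DMSO ≤0.25% final) for 24 h at 37 °C. Viability was measured by CellTiter-Glo luminescence.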

Compound	EC50 [nM]
COc1nc2ccccc2cc1-c1cnc([C@@H]2CN(CC3CCOC3)CCN2C(=O)Cn2c(C(F)(F)F)nc3ccccc32)[nH]1 (stereo partly drawn) [1-((2S)-2-(5-(2-methoxyquinolin-3-yl)-1H-imidazol-2-yl)-4-((tetrahydrofuran-3-yl)methyl)piperazin-1-yl)-2-(2-(trifluoromethyl)-1H-benzo[d]imidazol-1-yl)ethan-1-one]	< 100
COc1nc2ccccc2cc1-c1cnc([C@@H]2CN(CC3CCOC3)CCN2C(=O)Cn2c(C)nc3ccc(C(F)(F)F)cc32)[nH]1 (stereo partly drawn) [1-((2S)-2-(5-(2-methoxyquinolin-3-yl)-1H-imidazol-2-yl)-4-((tetrahydrofuran-3-yl)methyl)piperazin-1-yl)-2-(2-methyl-6-(trifluoromethyl)-1H-benzo[d]imidazol-1-yl)ethan-1-one]	< 100
COc1ccc2nc(C)n(CC(=O)N3CCN(CC4CCOC4)C[C@H]3c3ncc(-c4ccc5ncsc5c4)[nH]3)c2c1 (stereo partly drawn) [1-((2S)-2-(5-(benzo[d]thiazol-6-yl)-1H-imidazol-2-yl)-4-((tetrahydrofuran-3-yl)methyl)piperazin-1-yl)-2-(6-methoxy-2-methyl-1H-benzo[d]imidazol-1-yl)ethan-1-one]	1010 to 5000
COc1ccc2nc(C)n(CC(=O)N3CCN(CC4CCOC4)C[C@H]3c3ncc(-c4cc5ccccc5cn4)[nH]3)c2c1 (stereo partly drawn) [1-((2S)-2-(5-(isoquinolin-3-yl)-1H-imidazol-2-yl)-4-((tetrahydrofuran-3-yl)methyl)piperazin-1-yl)-2-(6-methoxy-2-methyl-1H-benzo[d]imidazol-1-yl)ethan-1-one]	100 to 500
COc1ccc2nc(C(F)(F)F)n(CC(=O)N3CCN(CC4CCN(C(C)=O)C4)C[C@H]3c3ncc(-c4cc5ccccc5nc4OC)[nH]3)c2c1 (stereo partly drawn) [1-((2S)-4-((1-acetylpyrrolidin-3-yl)methyl)-2-(5-(2-methoxyquinolin-3-yl)-1H-imidazol-2-yl)piperazin-1-yl)-2-(6-methoxy-2-(trifluoromethyl)-1H-benzo[d]imidazol-1-yl)ethan-1-one]	< 100
COc1ccc2nc(C(F)(F)F)n(CC(=O)N3CCC(O)C[C@H]3c3ncc(-c4cc5ccccc5nc4OC)[nH]3)c2c1 (stereo partly drawn) [1-((2S)-4-hydroxy-2-(5-(2-methoxyquinolin-3-yl)-1H-imidazol-2-yl)piperidin-1-yl)-2-(6-methoxy-2-(trifluoromethyl)-1H-benzo[d]imidazol-1-yl)ethan-1-one]	< 100
COc1ccc2nc(C(F)(F)F)n(CC(=O)N3CC[C@H](NCCn4cccn4)C[C@H]3c3ncc(-c4cc5ccccc5nc4OC)[nH]3)c2c1 [1-((2S,4S)-4-((2-(1H-pyrazol-1-yl)ethyl)amino)-2-(5-(2-methoxyquinolin-3-yl)-1H-imidazol-2-yl)piperidin-1-yl)-2-(6-methoxy-2-(trifluoromethyl)-1H-benzo[d]imidazol-1-yl)ethan-1-one]	< 100
COc1ccc2nc(C(F)(F)F)n(CC(=O)N3CC[C@H](NCCO)C[C@H]3c3ncc(-c4cc5ccccc5nc4OC)[nH]3)c2c1 [1-((2S,4S)-4-((2-hydroxyethyl)amino)-2-(5-(2-methoxyquinolin-3-yl)-1H-imidazol-2-yl)piperidin-1-yl)-2-(6-methoxy-2-(trifluoromethyl)-1H-benzo[d]imidazol-1-yl)ethan-1-one]	< 100
COc1ccc2nc(C(F)(F)F)n(CC(=O)N3CC[C@H](NCc4ccon4)C[C@H]3c3ncc(-c4cc5ccccc5nc4OC)[nH]3)c2c1 [1-((2S,4S)-4-((isoxazol-3-ylmethyl)amino)-2-(5-(2-methoxyquinolin-3-yl)-1H-imidazol-2-yl)piperidin-1-yl)-2-(6-methoxy-2-(trifluoromethyl)-1H-benzo[d]imidazol-1-yl)ethan-1-one]	< 100
COc1ccc2nc(C(F)(F)F)n(CC(=O)N3CC[C@H](NCc4cnoc4)C[C@H]3c3ncc(-c4cc5ccccc5nc4OC)[nH]3)c2c1 [1-((2S,4S)-4-((isoxazol-4-ylmethyl)amino)-2-(5-(2-methoxyquinolin-3-yl)-1H-imidazol-2-yl)piperidin-1-yl)-2-(6-methoxy-2-(trifluoromethyl)-1H-benzo[d]imidazol-1-yl)ethan-1-one]	< 100
COc1ccc2nc(C(F)(F)F)n(CC(=O)N3CC[C@H](NC4CCC4)C[C@H]3c3ncc(-c4cc5ccccc5nc4OC)[nH]3)c2c1 [1-((2S,4S)-4-(cyclobutylamino)-2-(5-(2-methoxyquinolin-3-yl)-1H-imidazol-2-yl)piperidin-1-yl)-2-(6-methoxy-2-(trifluoromethyl)-1H-benzo[d]imidazol-1-yl)ethan-1-one]	< 100
COc1ccc2nc(C(F)(F)F)n(CC(=O)N3CC[C@H](N(C)C)C[C@H]3c3ncc(-c4cc5ccccc5nc4OC)[nH]3)c2c1 [1-((2S,4S)-4-(dimethylamino)-2-(5-(2-methoxyquinolin-3-yl)-1H-imidazol-2-yl)piperidin-1-yl)-2-(6-methoxy-2-(trifluoromethyl)-1H-benzo[d]imidazol-1-yl)ethan-1-one]	< 100
CCN(C1CCOC1)[C@H]1CCN(C(=O)Cn2c(C(F)(F)F)nc3ccc(OC)cc32)[C@H](c2ncc(-c3cc4ccccc4nc3OC)[nH]2)C1 (stereo partly drawn) [1-((2S,4S)-4-(ethyl(tetrahydrofuran-3-yl)amino)-2-(5-(2-methoxyquinolin-3-yl)-1H-imidazol-2-yl)piperidin-1-yl)-2-(6-methoxy-2-(trifluoromethyl)-1H-benzo[d]imidazol-1-yl)ethan-1-one]	< 100
COc1ccc2nc(C(F)(F)F)n(CC(=O)N3CC[C@H](NCC(C)C)C[C@H]3c3ncc(-c4cc5ccccc5nc4OC)[nH]3)c2c1 [1-((2S,4S)-4-(isobutylamino)-2-(5-(2-methoxyquinolin-3-yl)-1H-imidazol-2-yl)piperidin-1-yl)-2-(6-methoxy-2-(trifluoromethyl)-1H-benzo[d]imidazol-1-yl)ethan-1-one]	< 100
COc1ccc2nc(C(F)(F)F)n(CC(=O)N3CC[C@H](N(Cc4ccn(C)n4)C(C)C)C[C@H]3c3ncc(-c4cc5ccccc5nc4OC)[nH]3)c2c1 [1-((2S,4S)-4-(isopropyl((1-methyl-1H-pyrazol-3-yl)methyl)amino)-2-(5-(2-methoxyquinolin-3-yl)-1H-imidazol-2-yl)piperidin-1-yl)-2-(6-methoxy-2-(trifluoromethyl)-1H-benzo[d]imidazol-1-yl)ethan-1-one]	< 100
COc1ccc2nc(C(F)(F)F)n(CC(=O)N3CC[C@H](NC(C)C)C[C@H]3c3ncc(-c4cc5ccccc5nc4OC)[nH]3)c2c1 [1-((2S,4S)-4-(isopropylamino)-2-(5-(2-methoxyquinolin-3-yl)-1H-imidazol-2-yl)piperidin-1-yl)-2-(6-methoxy-2-(trifluoromethyl)-1H-benzo[d]imidazol-1-yl)ethan-1-one]	< 100
COc1ccc2nc(C(F)(F)F)n(CC(=O)N3CC[C@H](N)C[C@H]3c3ncc(-c4cc5ccccc5nc4OC)[nH]3)c2c1 [1-((2S,4S)-4-amino-2-(5-(2-methoxyquinolin-3-yl)-1H-imidazol-2-yl)piperidin-1-yl)-2-(6-methoxy-2-(trifluoromethyl)-1H-benzo[d]imidazol-1-yl)ethan-1-one]	1010 to 5000
COc1ccc2nc(C(F)(F)F)n(CC(=O)N3CC[C@H](OC)C[C@H]3c3ncc(-c4cc5ccccc5nc4OC)[nH]3)c2c1 [1-((2S,4S)-4-methoxy-2-(5-(2-methoxyquinolin-3-yl)-1H-imidazol-2-yl)piperidin-1-yl)-2-(6-methoxy-2-(trifluoromethyl)-1H-benzo[d]imidazol-1-yl)ethan-1-one]	< 100
COc1ccc2nc(C)n(CC(=O)N3CC[C@H](OC)C[C@H]3c3ncc(-c4cc5ccccc5nc4OC)[nH]3)c2c1 [1-((2S,4S)-4-methoxy-2-(5-(2-methoxyquinolin-3-yl)-1H-imidazol-2-yl)piperidin-1-yl)-2-(6-methoxy-2-methyl-1H-benzo[d]imidazol-1-yl)ethan-1-one]	< 100
CN1CCN(S(=O)(=O)Cc2ccccc2)C(c2ncc(-c3ccc4ccccc4c3)[nH]2)C1 (centres unmarked) [1-(benzylsulfonyl)-4-methyl-2-(5-(naphthalen-2-yl)-1H-imidazol-2-yl)piperazine]	1010 to 5000
COc1nc2ccccc2cc1-c1cnc([C@@H]2CN(CC3CCOC3)CCN2C(=O)Cn2c(C(C)(C)C)nc3ccccc32)[nH]1 (stereo partly drawn) [2-(2-(tert-butyl)-1H-benzo[d]imidazol-1-yl)-1-((2S)-2-(5-(2-methoxyquinolin-3-yl)-1H-imidazol-2-yl)-4-((tetrahydrofuran-3-yl)methyl)piperazin-1-yl)ethan-1-one]	< 100
Cc1[nH]c2ccccc2c1CC(=O)N1CCN(CC2CCOC2)CC1c1ncc(-c2ccc3ccccc3c2)[nH]1 (centres unmarked) [2-(2-methyl-1H-indol-3-yl)-1-(2-(5-(naphthalen-2-yl)-1H-imidazol-2-yl)-4-((tetrahydrofuran-3-yl)methyl)piperazin-1-yl)ethan-1-one]	< 100
COc1cc2nc(C(F)(F)F)n(CC(=O)N3CCN(CC4CCOC4)C[C@H]3c3ncc(-c4cc5ccccc5nc4OC)[nH]3)c2cc1OC (stereo partly drawn) [2-(5,6-dimethoxy-2-(trifluoromethyl)-1H-benzo[d]imidazol-1-yl)-1-((2S)-2-(5-(2-methoxyquinolin-3-yl)-1H-imidazol-2-yl)-4-((tetrahydrofuran-3-yl)methyl)piperazin-1-yl)ethan-1-one]	< 100
CCC(=O)CCCN1CCN(C(=O)Nc2ccccc2)C(c2ncc(-c3ccc4ccccc4c3)[nH]2)C1 (centres unmarked) [2-(5-(naphthalen-2-yl)-1H-imidazol-2-yl)-4-(4-oxohexyl)-N-phenylpiperazine-1-carboxamide]	1010 to 5000
COc1nc2ccccc2cc1-c1cnc(C2CN(Cc3cnccn3)CCN2C(=O)Cc2c(C)[nH]c3ccc(F)cc23)[nH]1 (centres unmarked) [2-(5-fluoro-2-methyl-1H-indol-3-yl)-1-(2-(5-(2-methoxyquinolin-3-yl)-1H-imidazol-2-yl)-4-(pyrazin-2-ylmethyl)piperazin-1-yl)ethan-1-one]	< 100
COc1nc2ccccc2cc1-c1cnc(C2CN(C(=O)C3CCOC3)CCN2C(=O)Cc2c(C)[nH]c3ccc(F)cc23)[nH]1 (centres unmarked) [2-(5-fluoro-2-methyl-1H-indol-3-yl)-1-(2-(5-(2-methoxyquinolin-3-yl)-1H-imidazol-2-yl)-4-(tetrahydrofuran-3-carbonyl)piperazin-1-yl) ethan-1-one]	1010 to 5000
